{"source": "patent US12297240B2", "about": "“Peptide” (Kyoto University, priority 2015, dated 2025)", "key": {"ddY mice [1]": {"system": "ddY mice", "experiment": "Forced swim test", "assay_type": "in vivo", "settings": "1 mg/kg or more orally; doses tested 0.3, 1 mg/kg (Example 5, FIG. 8)", "protocol": "The test was carried out (0 minutes) 30 minutes after administration of a test substance, and the immobility time during the period from 0 to 8 minutes was measured (FIG. 2).\n(§1) As in the tail suspension test, when an antidepressant drug, such as imipramine, is administered, the immobility time is reduced. Thus, when a reduction in the immobility time is observed, it can be evaluated that the test substance has an antidepressant-like effect. Immobility is considered a despair state; therefore, a reduction in the immobility time also serves as an index for improvement of a despair state, i.e., enhancement of motivation."}, "[2]": {"system": "serotonin 5-HT1A, dopamine D1, and GABAA receptors", "experiment": "Tail suspension test in combination with receptor antagonists (mechanism of action)", "assay_type": "in vivo, mice", "settings": "0.3 mg/kg p.o. with WAY100135 10 mg/kg, SCH23390 30 μg/kg or bicuculline 30 mg/kg (Example 8, FIG. 11)", "protocol": "(§2) The test was carried out (0 minutes) 30 minutes after administration of a test substance, and the immobility time during the period from 0 to 6 minutes was measured (FIG. 2).\n(§3) The tail suspension test was performed using mice to which 30 mg/kg of the thermolysin digest of β-CG was orally administered (p.o.) in combination with each of the antagonists of various receptors. Three kinds of antagonists, i.e., WAY100135, which is an antagonist of the serotonin 5-HT1A receptor (dose: 10 mg/kg), SCH23390, which is an antagonist of the dopamine D1 receptor (dose: 30 μg/kg), and bicuculline, which is an antagonist of the GABA-A receptor (dose: 30 mg/kg), were used.\nas §3, with “which 0.3” for “which 30”, “the peptide LSSTQAQQSY (SEQ ID NO: 1)” for “the thermolysin digest of β-CG”"}, "ddY mice [3]": {"system": "ddY mice", "experiment": "Open field test", "assay_type": "in vivo", "protocol": "Similar to the case of the elevated plus-maze test, the higher the percentage of exploratory behaviors of a mouse in the center portion of a circle, the less anxious the mouse feels. Thus, the anxiolytic activity is determined based on this index.\nEach mouse was placed in an open field 30 minutes after the administration, and the test was started. The percentage of exploratory behaviors in the center portion of the circle (the time spent in the center circle (open field) (Time in 12 cm circle) and the percentage of the number of visits to the center circle (Visits in 12 cm circle)) during the 5-minute test time were evaluated."}, "ddY mice [4]": {"system": "ddY mice", "experiment": "Elevated plus-maze test (EPM)", "assay_type": "in vivo", "from_the_text": "The elevated plus-maze includes two open arms (25×5 cm) and two closed arms (25×5×15 cm), which are joined to a central platform 50 cm high above the floor (see FIG. 3A). Because the closed arms are surrounded by walls, a mouse can safely walk in the closed arms in spite of the elevated position. On the other hand, because the open arms are not surrounded by walls, a mouse walking along the open arms feels anxious that it may fall from the elevated position. Thus, the more time the mouse spends in the open arms, or the greater the number of entries into the open arms, the less anxious the mouse feels. Thus, the anxiolytic activity is determined based on these indices.\nEach mouse was placed on a portion of the central platform facing one of the open arms 30 minutes after the administration, and the test was started. During the 5-minute test time, the cumulative time spent in the open arms (time in open arms), the number of visits to the open arms (visit to open arms), and the total number of visits to any of the arms (total visits) were recorded. The percentage of time spent in the open arms and the percentage of the number of visits to the open arms were calculated as indices of anxiety."}, "ddY mice [5]": {"system": "ddY mice", "experiment": "Tail suspension test", "assay_type": "in vivo", "protocol": "as §2\nas §1, with “When” for “As in the tail suspension test, when”"}}, "data": [{"sequence": "LSSTQAQQSY (Designed peptide) [10-residue peptide from thermolysin digest of soybean β-conglycinin; synthesized by a standard method]", "values": [{"measurement": "immobility time", "setting": "ddY mice [1]", "value": "significantly reduced"}, {"measurement": "reduction in the immobility time in combination with antagonists", "setting": "[2]", "value": "significantly suppressed"}, {"measurement": "number of visits to the center circle (open field)", "setting": "ddY mice [3]; 1 mg/kg orally (Example 11, FIG. 15)", "value": "significantly increased"}, {"measurement": "time spent in the center circle (open field)", "setting": "ddY mice [3]; 1 mg/kg orally, doses tested 0.1, 0.3, 1 mg/kg (Example 11, FIG. 15)", "value": "significantly increased"}, {"measurement": "amount of activities", "setting": "ddY mice [3]; 0.1, 0.3 or 1 mg/kg (Example 11, FIG. 15)", "value": "no significant difference"}, {"measurement": "percentage of time spent in the open arms", "setting": "ddY mice [4]; 1 mg/kg orally, doses tested 0.1, 0.3, 1 mg/kg (Example 10, FIG. 14)", "value": "significantly increased"}, {"measurement": "total number of entries (amount of activities)", "setting": "ddY mice [4]; 0.1, 0.3 or 1 mg/kg (Example 10, FIG. 14)", "value": "no significant difference"}, {"measurement": "immobility time", "setting": "ddY mice [5]; 0.3 mg/kg or more orally, doses tested 0.1, 0.3, 1, 3 mg/kg (Example 4, FIG. 7)", "value": "significantly reduced"}, {"measurement": "immobility time", "setting": "ddY mice [5]; 0.3 mg/kg orally, C-terminal variants (Example 12, FIG. 16)", "value": "strongest immobility time reducing effect"}, {"measurement": "immobility time", "setting": "ddY mice [5]; 0.3 mg/kg orally, structure-activity relationships (Example 6, FIG. 9)", "value": "strongest immobility time reducing effect"}]}]}
